Patent US11596613B2, “Compositions and methods for treating cancer” (UNIVERSITY OF IOWA RESEARCH FOUNDATION, priority 2015, dated 2023)

Tested on: A375 xenografts
Test: A375 xenografts in athymic nu/nu mice treated with PLX4720 diet and/or BSO in drinking water
Assay type: in vivo
Description: 2-Mercaptoethanol is a reducing agent that leads to reduction of disulphide bonds to produce thiols. […] The effect of eliminating GSH in vivo was tested by treating mice (Athymic nu/nu) bearing A375 xenografts with rodent diet (AIN-76A) containing PLX4720 ([…], 416 mg/kg of diet) alone and in combination with BSO (15 mM in drinking water). […] Tumor xenografts in mice treated with the AIN-76 diet mixed with PLX4720 were responsive initially, but approximately 80% of these tumors acquired resistance to BRAFi treatment alone within 140 days (i.e., 20% complete responses; FIG. 2). On the contrary, the combination of BSO with PLX4720 produced nearly 90% complete and durable tumor responses (FIG. 4). […] Tumor progression was defined as a 50% increase (approximately a two standard deviation increase) in tumor volume from study initiation.
Female athymic nu/nu mice (age six weeks) were purchased from Envigo (previously Harlan Laboratories) and housed in the Animal Care Facility at The University of Iowa (Iowa City, Iowa). All procedures were approved by The University of Iowa Institutional Animal Care and Use Committee. All mice were naïve to treatments at the time of xenograft. For each xenograft, 1-3×10^6 cells (451LuBR and A375) were implanted subcutaneously in a 1:1 suspension of Matrigel (Corning) and PBS (flank) using a 27-gauge needle. For all in vivo studies, the mice were randomly assigned to experimental groups post-implant. Animals developed tumors within 7-10 days post-implant. Initiation of treatments was standardized to the time that tumor volume ([(longest length)×(smallest length^2)]/2) reached 80-100 mm^3.
The dose and mode of delivery for PBA was determined by analyzing the pharmacokinetics C-14 labeled PBA in mice (FIG. 5). These drugs were administered alone and in combination depending on the experimental group. The mice were monitored for their state of health every day. Tumor volume and animal weights were measured twice per week. Mice were euthanized when the observed state of health reached the endpoint according to the approved IACUC protocol or when the tumor volume reached 1500 mm^3.
Statistics was conducted using the tumor sizes (mm^3) that were obtained periodically throughout the experiments, resulting in repeated measurements for each mouse. Linear mixed effects regression models were used to estimate and compare treatment group-specific tumor growth curves. Pairwise comparisons were performed to identify treatment group differences in the growth curves. The Kaplan-Meier method was used to estimate the survival curves, and group comparisons were made using the log rank test. Mice who developed ulcerations were censored at day of euthanasia. […]

Structure (SMILES)	tumor growth rate (BSO 15 mM in drinking water, versus untreated controls)	GSH concentrations in tumor samples (mice treated with BSO vs controls)	complete (and durable) tumor responses (PLX4720 416 mg/kg of diet, alone or with BSO 15 mM in drinking water)	tumors that acquired resistance to BRAFi treatment (within 140 days, PLX4720 416 mg/kg of AIN-76A diet)
CCCCS(=N)(=O)CCC(N)C(=O)O (stereo not shown) [BSO, buthionine sulfoximine]	No significant difference	significantly lower		
CCCS(=O)(=O)Nc1ccc(F)c(C(=O)c2c[nH]c3ncc(Cl)cc23)c1F [PLX4720]			20%	approximately 80%
